{
  "source": "patent US8303934B2",
  "about": "“Methods and compositions of [32P]-labeled adenine nucleotides for the treatment of atherosclerosis, vascular arterial diseases and coronary artery diseases” (priority 2011, dated 2012)",
  "origin": "cited, not measured here",
  "system": "established human xenographed tumors",
  "conditions": "established human xenografted tumors in athymic mice; low-level doses",
  "data": [
    {"smiles": "Nc1ncnc2c1ncn2[C@@H]1O[C@H](COP(=O)(O)OP(=O)(O)OP(=O)(O)O)[C@@H](O)[C@H]1O", "note": "[[32P]ATP, [32P]adenosine 5′-triphosphate]", "values": [
      {"measurement": "activity as an anti-tumor cytotoxic agent", "result": "very active"}
    ]}
  ]
}
